Experimental data published in ChEMBL document CHEMBL1201862, “PubChem BioAssay data set” (2004).
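Exposure lasted 48 hours, with cells grown in 96-well plates and compounds tested at five concentrations. GI50: concentration for 50% inhibition of growth.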 Active and inactive are the calls of the source. No stated cut-off is given here; in the data, active = GI50 up to about 1.1 µM and inactive = higher.

Legend:
Assay in all cases: NCI anticancer screen, dose series, 48 h
IGROV-1 = tested on: IGROV-1
SF-539 = tested on: SF-539
A498 = tested on: A498
SW-620 = tested on: SW-620
RPMI-8226 = tested on: RPMI-8226
HOP-62 = tested on: HOP-62
MDA-N = tested on: MDA-N
A549 = tested on: A549
COLO 205 = tested on: COLO 205
UO-31 = tested on: UO-31
OVCAR-5 = tested on: OVCAR-5
ACHN = tested on: ACHN
HCT-15 = tested on: HCT-15
U-251 = tested on: U-251
NCI-H522 = tested on: NCI-H522
OVCAR-3 = tested on: OVCAR-3
MDA-MB-231 = tested on: MDA-MB-231
LOX IMVI = tested on: LOX IMVI
BT-549 = tested on: BT-549
Hs-578T = tested on: Hs-578T

Measured: GI50

O=C(O)[C@H]1[C@@H](C2CCCCC2)O[C@@H](C2CCCCC2)O[C@H]1C(F)(F)F
inactive: IGROV-1 16.6 µM | SF-539 35.7 µM | A498 19 µM | SW-620 19.8 µM | RPMI-8226 23.9 µM | HOP-62 24 µM | MDA-N 16.9 µM | A549 20.9 µM | COLO 205 20.4 µM | UO-31 26.2 µM | OVCAR-5 20.2 µM | ACHN 18.7 µM | U-251 18.8 µM | NCI-H522 52.2 µM | OVCAR-3 20.4 µM | MDA-MB-231 18.2 µM | LOX IMVI 19.9 µM | BT-549 33.2 µM | Hs-578T 23.1 µM
30.1 µM: HCT-15

COC(=O)CCC(=O)NC1=C(Nc2ccc(OC)cc2)C(=O)c2ccccc2C1=O
inactive: IGROV-1 11.9 µM | SF-539 14.2 µM | A498 19.2 µM | SW-620 15.3 µM | RPMI-8226 15.7 µM | HOP-62 18.7 µM | MDA-N 1.81 µM | A549 14 µM | COLO 205 14.5 µM | UO-31 15.4 µM | OVCAR-5 17.1 µM | ACHN 15.4 µM | U-251 16.5 µM | NCI-H522 10.8 µM | OVCAR-3 3.18 µM | MDA-MB-231 10.7 µM | LOX IMVI 4.15 µM | BT-549 15.4 µM | Hs-578T 20.8 µM
7.18 µM: HCT-15

COc1cc2ncnc(Nc3cccc(Cl)c3)c2cc1OC [TYRPHOSTIN AG-1478]
9.25 µM: HCT-15
active: IGROV-1 0.0736 µM | ACHN 0.0446 µM | NCI-H522 0.356 µM
inactive: SF-539 15.9 µM | A498 2.54 µM | SW-620 16.1 µM | RPMI-8226 8.85 µM | HOP-62 20.8 µM | MDA-N 15.1 µM | A549 10.6 µM | COLO 205 17.9 µM | UO-31 4.47 µM | OVCAR-5 9.46 µM | U-251 15.2 µM | OVCAR-3 3.05 µM | MDA-MB-231 14.2 µM | LOX IMVI 11.5 µM | BT-549 1.42 µM | Hs-578T 3.57 µM

O=C1C=C(N2CCN(CCOCCO)CC2)C(=O)c2c(O)ccc(O)c21
inactive: IGROV-1 3.74 µM | SF-539 10.6 µM | A498 14.4 µM | SW-620 2.31 µM | RPMI-8226 4.44 µM | HOP-62 17.9 µM | MDA-N 1.84 µM | A549 3.56 µM | COLO 205 1.38 µM | UO-31 10.3 µM | OVCAR-5 3.9 µM | ACHN 7.4 µM | U-251 4.02 µM | NCI-H522 2.9 µM | OVCAR-3 1.82 µM | MDA-MB-231 7.35 µM | LOX IMVI 1.92 µM | BT-549 11.9 µM | Hs-578T 20.1 µM
1.64 µM: HCT-15

C=CCCCCCCCCCOC1C=CC(OC(C)=O)C(COC(C)=O)O1 (stereo not given)
inactive: IGROV-1 27 µM | SF-539 > 100 µM | A498 > 100 µM | SW-620 57 µM | RPMI-8226 13.2 µM | HOP-62 83.8 µM | MDA-N 44.3 µM | A549 55.7 µM | COLO 205 51.6 µM | UO-31 44.8 µM | OVCAR-5 > 100 µM | ACHN 65.5 µM | U-251 39.6 µM | NCI-H522 26.5 µM | OVCAR-3 44.4 µM | MDA-MB-231 > 100 µM | LOX IMVI 34.2 µM | BT-549 66.4 µM | Hs-578T 28.9 µM
36.6 µM: HCT-15

OCCCSCCO
> 100 µM: HCT-15
inactive: IGROV-1 > 100 µM | SF-539 > 100 µM | A498 > 100 µM | SW-620 > 100 µM | RPMI-8226 > 100 µM | HOP-62 > 100 µM | MDA-N > 100 µM | A549 > 100 µM | COLO 205 > 100 µM | UO-31 > 100 µM | OVCAR-5 > 100 µM | ACHN > 100 µM | U-251 > 100 µM | NCI-H522 > 100 µM | OVCAR-3 > 100 µM | MDA-MB-231 > 100 µM | LOX IMVI > 100 µM | BT-549 > 100 µM | Hs-578T > 100 µM
